From patent publication US11590116B2 (THERAVANCE BIOPHARMA R&D IP, LLC, priority 2019, dated 2023) come the findings set out here.

The test system of experiment [1] is TGF-β-stimulated SMAD3 phosphorylation in BEAS-2B cells. The experiment in a line: Cellular ALK5 potency assay, inhibition of TGF-β stimulated pSMAD3 formation in BEAS-2B cells. It is filed as cell-based. The conditions noted are these: Homo sapiens; inhibition of TGF-β stimulated pSMAD3 formation, BEAS-2B cells; read-out: BEAS2B pIC50 (converted). The method in brief:
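BEAS-2B human lung epithelial cells pre-treated 1 h at 37° C with compound in HBSS/25 mM HEPES/1% BSA, then stimulated 30 min with 10 ng/mL TGF-β (final). Lysates assayed for pSMAD3 by AlphaLISA; pIC50 from dose-dependent change versus stimulated untreated cells.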

Experiment [2] concerns the target T1, recombinant human ALK5 (TGF-βR1) protein (Homo sapiens, UniProt P36897).
T1 construct: purchased Life Technologies PR9075A
T1 sequence (P36897 34-503): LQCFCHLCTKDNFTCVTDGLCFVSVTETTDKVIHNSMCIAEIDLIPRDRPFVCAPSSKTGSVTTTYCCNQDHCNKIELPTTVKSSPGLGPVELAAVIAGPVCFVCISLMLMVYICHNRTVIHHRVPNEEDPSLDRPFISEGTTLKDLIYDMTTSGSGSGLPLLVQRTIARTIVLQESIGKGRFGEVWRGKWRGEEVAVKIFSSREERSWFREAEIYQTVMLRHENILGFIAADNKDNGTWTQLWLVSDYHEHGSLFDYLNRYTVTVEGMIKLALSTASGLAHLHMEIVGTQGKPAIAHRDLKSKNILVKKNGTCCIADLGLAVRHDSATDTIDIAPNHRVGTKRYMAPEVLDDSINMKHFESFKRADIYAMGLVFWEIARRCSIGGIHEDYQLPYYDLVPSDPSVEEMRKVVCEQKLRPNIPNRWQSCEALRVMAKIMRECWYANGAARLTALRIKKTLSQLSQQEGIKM
The experiment in a line: Biochemical ALK5 (TGF-βR1) assay to measure pKi (LANCE Ultra ULight kinase assay). The conditions noted are these: apparent pKi from pIC50 by Cheng-Prusoff, read-out: ALK5 pKi (converted). The method in brief:
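Compounds (10 μM to 25 pM) preincubated 60 minutes at room temperature with enzyme, then reaction run 60 minutes at 37° C with ATP added as 125 μM (5× final). Stopped with EDTA plus Eu-anti-phospho-Topoisomerase 2-alpha (Thr1342) antibody, TR-FRET read at 665 nm; pIC50 converted to pKi via Cheng-Prusoff.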

For the compound `CNCCn1ccc(-c2cnc3ccc(-c4c[nH]nc4-c4ccc(F)c(C)n4)nc3c2)n1` [Compound 108, 2-[3-[6-[3-(5-fluoro-6-methyl-2-pyridyl)-1H-pyrazol-4-yl]-1,5-naphthyridin-3-yl]pyrazol-1-yl]-N-methyl-ethanamine], in experiment [1], the IC50 was 25.1 to 158 nM. The Ki in experiment [2] is 0.0398 to 0.316 nM.

For the compound `Cc1cccc(-c2n[nH]cc2-c2ccc3ncc(N4CC5CNC5C4)cc3c2)n1` (stereo not drawn) [Compound 535, 3-(3,6-diazabicyclo[3.2.0]heptan-3-yl)-6-[3-(6-methyl-2-pyridyl)-1H-pyrazol-4-yl]quinoline], the IC50 in experiment [1] is 25.1 to 158 nM. The Ki in experiment [2] was 0.0398 to 0.316 nM.

As for `Cc1cccc(-c2n[nH]cc2-c2ccc3ncc(-c4cnn(CCN)c4)cc3n2)n1` [Compound 305, 2-[4-[6-[3-(6-methyl-2-pyridyl)-1H-pyrazol-4-yl]-1,5-naphthyridin-3-yl]pyrazol-1-yl]ethanamine], the IC50 in experiment [1] is 25.1 to 158 nM. Besides, the Ki in experiment [2] is below 0.0316 nM.

For `Cc1cccc(-c2n[nH]cc2-c2ccc3ncc(-c4ncn5c4NCC5)cc3n2)n1` [Compound 445, 7-(2,3-dihydro-1H-imidazo[1,5-a]imidazol-7-yl)-2-[3-(6-methyl-2-pyridyl)-1H-pyrazol-4-yl]-1,5-naphthyridine], in experiment [1], the IC50 is 25.1 to 158 nM. Besides, the Ki in experiment [2] is 0.0398 to 0.316 nM.

Regarding `Cc1cccc(-c2n[nH]cc2-c2ccc3ncc(-c4cc(C)nn4C)cc3n2)n1` [Compound 596, 7-(2,5-dimethylpyrazol-3-yl)-2-[3-(6-methyl-2-pyridyl)-1H-pyrazol-4-yl]-1,5-naphthyridine], the IC50 in experiment [1] was below 20 nM. In addition, in experiment [2], the Ki was below 0.0316 nM.

For `CNCc1cncc(-c2cnc3ccc(-c4nc[nH]c4-c4cccc(C)n4)cc3c2)c1` [Compound 342, N-methyl-1-[5-[6-[5-(6-methyl-2-pyridyl)-1H-imidazol-4-yl]-3-quinolyl]-3-pyridyl]methanamine], in experiment [1], the IC50 is 25.1 to 158 nM. Further, the Ki in experiment [2] was 0.0398 to 0.316 nM.

As for `Cc1cccc(-c2[nH]cnc2-c2ccc3ncc(C4=CC[C@H](NC(=O)[C@H]5CCCN5)CC4)cc3c2)n1` [Compound 776, (2R)-N-[(1R)-4-[6-[5-(6-methyl-2-pyridyl)-1H-imidazol-4-yl]-3-quinolyl]cyclohex-3-en-1-yl]pyrrolidine-2-carboxamide], the IC50 in experiment [1] is 25.1 to 158 nM. Moreover, the Ki in experiment [2] was 0.0398 to 0.316 nM.

As to `CNc1cnc2ccc(-c3c(-c4cccc(C)n4)n[nH]c3OC)nc2c1` [Compound 507, 6-[5-methoxy-3-(6-methyl-2-pyridyl)-1H-pyrazol-4-yl]-N-methyl-1,5-naphthyridin-3-amine], the IC50 in experiment [1] was 200 to 1260 nM. Further, the Ki in experiment [2] was 0.398 to 3.16 nM.

Take `Cc1cccc(-c2[nH]cnc2-c2ccc3ncc(-c4ccc(C(=O)OCCN5CCNCC5)nc4)cc3c2)n1` [Compound 1054, 2-piperazin-1-ylethyl 5-[6-[5-(6-methyl-2-pyridyl)-1H-imidazol-4-yl]-3-quinolyl]pyridine-2-carboxylate]: the IC50 in experiment [1] was 200 to 1260 nM. Also, the Ki in experiment [2] was 0.0398 to 0.316 nM.

Regarding `Cc1cccc(-c2[nH]cnc2-c2ccc3ncc(NCCN4CC5CNC5C4)cc3c2)n1` (stereo not drawn) [Compound 129, N-[2-(3,6-diazabicyclo[3.2.0]heptan-3-yl)ethyl]-6-[5-(6-methyl-2-pyridyl)-1H-imidazol-4-yl]quinolin-3-amine], the IC50 in experiment [1] was 200 to 1260 nM. The Ki in experiment [2] was 0.0398 to 0.316 nM.

With `Cc1cccc(-c2n[nH]cc2-c2ccc3nccc(CO)c3n2)n1` [Compound 801, [6-[3-(6-methyl-2-pyridyl)-1H-pyrazol-4-yl]-1,5-naphthyridin-4-yl]methanol], the IC50 in experiment [1] was 200 to 1260 nM. Besides, the Ki in experiment [2] was 0.398 to 3.16 nM.

As to `Cc1cccc(-c2nn3c(c2-c2ccc4ncc(-c5cn[nH]c5)cc4n2)CNCC3)n1` [Compound 115, 2-(2-(6-Methylpyridin-2-yl)-4,5,6,7-tetrahydropyrazolo[1,5-a]pyrazin-3-yl)-7-(1H-pyrazol-4-yl)-1,5-naphthyridine], the IC50 in experiment [1] is 25.1 to 158 nM. Moreover, the Ki in experiment [2] was 0.0398 to 0.316 nM.

In the case of `Cc1cccc(-c2[nH]cnc2-c2ccc3ncc(-c4csc(C(=O)OCCN5CCC[C@H](N)C5)c4)cc3c2)n1` [Compound 1250, 2-[(3S)-3-amino-1-piperidyl]ethyl 4-[6-[5-(6-methyl-2-pyridyl)-1H-imidazol-4-yl]-3-quinolyl]thiophene-2-carboxylate], the IC50 in experiment [1] is 25.1 to 158 nM. In addition, the Ki in experiment [2] is 0.398 to 3.16 nM.

Consider `Cc1cccc(-c2n[nH]cc2-c2ccc3ncc(N4CCNC5(CCC5)C4)cc3n2)n1` [Compound 223, 7-(5,8-diazaspiro[3.5]nonan-8-yl)-2-[3-(6-methyl-2-pyridyl)-1H-pyrazol-4-yl]-1,5-naphthyridine], for which, in experiment [1], the IC50 was 25.1 to 158 nM. Also, the Ki in experiment [2] was 0.0398 to 0.316 nM.

For `CNCCn1cc(-c2cnc3ccc(-c4c(-c5ccc(F)c(C)n5)nc5ccccn45)cc3c2)cn1` [Compound 79, 2-[4-[6-[2-(5-fluoro-6-methyl-2-pyridyl)imidazo[1,2-a]pyridin-3-yl]-3-quinolyl]pyrazol-1-yl]-N-methyl-ethanamine], in experiment [1], the IC50 was 25.1 to 158 nM. The Ki in experiment [2] was 0.0398 to 0.316 nM.

Regarding `Cc1cccc(-c2[nH]cnc2-c2ccc3ncc(-c4csc(C(=O)OC[C@H]5CC[C@H](N)CC5)c4)cc3c2)n1` [Compound 1171, (4-aminocyclohexyl)methyl 4-[6-[5-(6-methyl-2-pyridyl)-1H-imidazol-4-yl]-3-quinolyl]thiophene-2-carboxylate], the IC50 in experiment [1] is 25.1 to 158 nM. Also, the Ki in experiment [2] is below 0.0316 nM.

In the case of `Cc1cccc(-c2n[nH]cc2-c2ccc3ncc(-c4nc(C(F)(F)F)n5c4CNCC5)cc3n2)n1` [Compound 465, 2-[3-(6-methyl-2-pyridyl)-1H-pyrazol-4-yl]-7-[3-(trifluoromethyl)-5,6,7,8-tetrahydroimidazo[1,5-a]pyrazin-1-yl]-1,5-naphthyridine], the IC50 in experiment [1] was 25.1 to 158 nM. In experiment [2], the Ki is 0.0398 to 0.316 nM.

As for `Cc1cccc(-c2n[nH]cc2-c2ccc3ncc(-c4nnn5c4CNCC5)cc3n2)n1` [Compound 130, 2-[3-(6-methyl-2-pyridyl)-1H-pyrazol-4-yl]-7-(4,5,6,7-tetrahydrotriazolo[1,5-a]pyrazin-3-yl)-1,5-naphthyridine], the IC50 in experiment [1] was 25.1 to 158 nM. Further, the Ki in experiment [2] was 0.0398 to 0.316 nM.

Turning to `Cc1cccc(-c2[nH]cnc2-c2ccc3ncc(C(=O)OC[C@@H]4CCC[C@H](N)C4)cc3c2)n1` (racemic) [Compound 767, [rac-(1R,3S)-3-aminocyclohexyl]methyl 6-[5-(6-methyl-2-pyridyl)-1H-imidazol-4-yl]quinoline-3-carboxylate], the IC50 in experiment [1] is 25.1 to 158 nM. Further, in experiment [2], the Ki was 0.0398 to 0.316 nM.

For `CNCCn1cc(-c2cnc3ccc(-c4c(-c5cccc(C)n5)nc5ccccn45)nc3c2)cn1` [Compound 527, N-methyl-2-(4-(6-(2-(6-methylpyridin-2-yl)imidazo[1,2-a]pyridin-3-yl)-1,5-naphthyridin-3-yl)-1H-pyrazol-1-yl)ethan-1-amine], the IC50 in experiment [1] is 25.1 to 158 nM. In addition, the Ki in experiment [2] was 0.0398 to 0.316 nM.

For the compound `Cc1cccc(-c2n[nH]cc2-c2ccc3ncc(-c4nnn5c4NCC5)cc3n2)n1` [Compound 5, 7-(5,6-dihydro-4H-imidazo[1,2-c]triazol-3-yl)-2-[3-(6-methyl-2-pyridyl)-1H-pyrazol-4-yl]-1,5-naphthyridine], in experiment [1], the IC50 is 25.1 to 158 nM. Moreover, the Ki in experiment [2] is below 0.0316 nM.
